Entries after “also recorded” stand apart in the source; their conditions may differ.
Assays:
P. berghei sporozoites = assay: P. berghei sporozoite challenge of vaccinated mice given PbT-I cells; conditions: single vaccination; 200 P. berghei ANKA sporozoites at day 42
Procedure: The remaining mice were challenged with 200 P. berghei sporozoites at day 42 and parasitemia was measured by flow cytometry from day 6-13. […] Percentage of parasites present in red blood cells at day 7 post malaria challenge. […] Number of mice that succumbed or were protected after malaria challenge.
The remaining mice in each group were challenged with 200 P. berghei sporozoites at day 73 and parasitemia was measured at day 79, 80, 81. Mice with two consecutive days of visible parasites in the blood were culled. Mice surviving challenge with low dose sporozoites were rechallenged with 3000 sporozoites. Parasitemia was measured at days 5, 6, 7, 8 and 12 post-high-dose-challenge.
As described in Example 11, 50,000 PbT-I.GFP cells were transferred into recipient C57BL/6 mice. […] Organs were harvested from mice from each group at days 21-35 post vaccination and assessed for the generation of memory T cells by flow cytometry as outlined in FIG. 5. The remaining mice per group were challenged with 200 P. berghei sporozoites at day 42 and parasitemia was measured by flow cytometry at days 6, 7, 8 and 13. […]
As described in Example 12, 50,000 PbT-I.GFP cells were transferred into recipient C57BL/6 mice. […] Organs were harvested from mice from each group at days 21 post vaccination and assessed for the generation of memory T cells by flow cytometry as outlined in FIG. 5. […]

NKT cells = assay: NKT cell expansion and activation by NVY conjugates; format: in vivo, C57BL/6 mice; conditions: 0.135 nmol, day 3
From the text: Lymphocytes were stained with monoclonal antibodies for: CD49a (Ha31/8), NK1.1 (PK136) from BD (North Ryde, NSW, Australia), CD8a (53-6.7), KLRG1 (2F1), Ly5.1 (A20), Ly5.1 (104), CD8a (53-6.7), CD44 (IM7), Ly6C (HK1.4), TCRβ (H57-597), CXCR6 (SA051D1), CXCR3 (CXCR3-173), CX3CR1 (SA011F11), from Biolegend (Australian Biosearch, Karrinyup, WA. Australia), and CD62L (MEL-14), CD101 (Moushi101) and CD69 (H1.2F3), from eBioscience (Jomar Life Research, Scoresby, VIC, Australia). Dead cells were excluded by propidium iodide staining or far red live/dead fixable dye (ThermoFisher). In some experiments cells were stained with an α-GalCer (PBS-44—a gift from Prof. Paul Savage, Brigham-Young University, UT, USA)-loaded CD1d tetramer produced in-house at 4° C. for 30 min, washed, and further antibody staining was conducted for 10 min at 4° C. Antibodies used were for: CD3 (17A2), CD45R/B220 (RA3-6B2), NK1.1 (PK136), CD69 (H1.2F3), all from BioLegend (CA, USA). The viability dye used was DAPI (Invitrogen, NZ). Single-color positive control samples were used to adjust compensation and cells were analyzed by flow cytometry on a LSR Fortessa (BD Biosciences), or LSRII SORP using Flowjo software (Tree Star Inc.).

PbT-I liver TRM cells = assay: Prime-and-trap vaccination with CpG or α-GalCer as adjuvant; format: in vivo, C57BL/6 mice; conditions: adjuvant with αClec9a-NVY plus rAAV-NVY; 50,000 PbT-I cells; liver day 35
From the text: The following day all mice were infected with 2.5×10^9 copies of rAAV-NVY. Spleens (A) and livers (B) were harvested from all mice 35 days later and the number of PbT-I TRM (CD69^+CD62L^low), TEM (CD69−CD62L^low) and TCM (CD69−CD62L^high) cells were enumerated by flow cytometry.
As illustrated above, prime-and-trap vaccination using CpG as an adjuvant was very effective at inducing liver TRM cells. To test whether CpG adjuvant might be substituted by α-GalCer, we compared prime-and-trap using CpG versus α-GalCer, (FIG. 3). C57BL/6 mice were injected with 50,000 naïve PbT-I T cells to track responses and were then vaccinated with the anti-Clec9A-NVY fusion protein together with either CpG or α-GalCer as adjuvant plus rAAV-NVY (SEQ ID NO: 15).

[1] = tested on: epitope-specific CD8+ T cell response; assay: PfRPL677-85-specific response in spleen by ELISpot after peptide immunization of HHD mice; format: in vivo; conditions: peptide with anti-CD40 mAb and poly IC, spleen day 7
Procedure: HHD mice, which express human HLA-A*02:01 and lack expression of murine MHC class molecules, were immunized with […] anti-CD40 mAb+[…] poly IC+[…] of PfRPL677-85 peptide ([…]) (SEQ ID NO: 18), or no peptide. 7 days later, PfRPL677-85-specific responses were measured in the spleen by ELISpot, by restimulating with the same peptide. Data were analysed using two-way ANOVA; Number of experiments=2, number of mice=3-4.
Having characterized PBANKA 1351900 (60S ribosomal protein L6-2, putative) RPL6 as a promising antigen in P. berghei, we sought to identify potential human-relevant antigens in its P. falciparum ortholog (PF3D7 1338200, also known as PF13 0213). To this extent, we used the Immune Epitope Database (IEDB: https://www.iedb.org/) epitope prediction resource (Vita, R. et al. 2019) to search for peptides within P. falciparum RPL6 that were capable of binding HLA-A*02:01; a common allele.

Compound: CCCCCCCCCCCCCCCCCCCCCCCCCC(=O)N[C@@H](CO[C@H]1O[C@H](CO)[C@H](O)[C@H](O)[C@H]1O)[C@H](O)[C@H](O)CCCCCCCCCCCCCC [α-GalCer, N-((2S,3S,4R)-3,4-Dihydroxy-1-(((2S,3R,4S,5R,6R)-3,4,5-trihydroxy-6-(hydroxymethyl)tetrahydro-2H-pyran-2-yl)oxy)octadecan-2-yl)hexacosanamide]
- protection after malaria challenge (P. berghei sporozoites): no mice were protected
- expansion of NKT cells (numbers in liver and spleen) (NKT cells): more efficient at expanding NKT cells than V.S.NVYLP
- activation of NKT cells (CD69, NK1.1) (NKT cells; liver and spleen): more potently activated NKT cells when compared to V.S.NVYLP
- liver TRM cell numbers in prime-and-trap setting (PbT-I liver TRM cells): gave a much poorer liver TRM cell response; also recorded: does not generate large numbers of liver TRM cells; also recorded: did not produce high numbers of liver TRM cells

Compound: ILNSGLLAV
- epitope-specific CD8+ T cell response [1]: triggered an epitope-specific CD8^+ T cell response

From patent publication US20220233668A1, “GLYCOPEPTIDE VACCINE” (VICTORIA LINK LTD., priority 2019, published 2022)
